Laboratory results as given in patent US5278181A, “Soluble alkyl[5-[amino (phenyl)methyl]-1H-benzimidazol-2-yl] carbamate anthelmintics” (priority 1992, dated 1994).
Where “and” joins values, the source holds several entries; their conditions need not be identical. Identical values can stand only once.

Test system: Brugia pahangi
Assay: Antifilarial dual infection screen in jirds: adult B. pahangi burden
Assay type: in vivo, in Mongolian jirds
Description: Dual infections of the filarial worms Brugia pahangi and Acanthocheilonema viteae in jirds are used routinely for antifilarial screening [McCall, J. W., McTier, T. L., and Rowan, S. J., "In vivo models for evaluating potential antifilarial agents", Onchocerciasis/Filariasis (Proceedings of a Symposium sponsored by the World Health Organization), Kalamazoo, Mich., Apr. 8-10, 23-24 (1986)].
For this dual infection screen, male Mongolian jirds weighing 50-60 g are infected SC with 10 (5 male and 5 female) adult A. viteae, transplanted under sodium pentobarbital anesthesia (48 mg/kg) from donor hamsters infected SC 8 weeks earlier. Two weeks later, 20 (10 male and 10 female) adult B. pahangi, taken from donor jirds infected IP 8 weeks earlier, are transplanted into the peritoneal cavity of each jird under sodium pentobarbital anesthesia. After an additional week, when the jirds have acceptable levels of microfilaremia, they are randomly allocated to treatment groups of 3 animals each and a nontreated group of 4-6 animals. Microfilaremia is determined on days 0 (just prior to the first dose), 4 and 56 post-treatment. Unless indicated otherwise, compounds are suspended in hydroxyethylcellulose (0.5%) - Tween 80 (0.1%) and administered SC at 100 mg/kg/day for 5 consecutive days. All jirds are killed on day 56 post-treatment to determine the effects of drugs on adults of A. viteae and B. pahangi. Live worms are identified as to species, noted as to sex, and counted. The number of dead and/or encapsulated worms is also recorded. A reduction of ≥80% in microfilaremia or ≥50% in adult worm burden (either species) compared with pre-treatment microfilaremia or non-treated control worm burden, respectively, is considered to be significant. For secondary testing with this dual infection screen, groups of 7 animals each are used. For oral dosing, drugs are dissolved or suspended in hydroxyethylcellulose - Tween 80 and administered by gavage.

COC(=O)Nc1nc2cc(C(N)c3ccc(F)cc3)ccc2[nH]1.Cl.Cl (racemic) [Example 2, Methyl (±)-[5-[Amino(4Fluorophenyl)Methyl]-1H-Benzimidazol-2-yl]Carbamate Dihy drochloride Salt]
% Macrofilarial reduction, B. pahangi (1.56 mg/kg/day × 5 days, SC, day 56): 22%
% Macrofilarial reduction, B. pahangi (3.13 mg/kg/day × 5 days, SC, day 56, 3.13 mg/kg/day): 84% and 88%
% Macrofilarial reduction, B. pahangi (6.25 mg/kg/day × 5 days, SC, day 56, 6.25 mg/kg/day): 96% and 98%
% Macrofilarial reduction, B. pahangi (12.5 mg/kg/day × 1 day, SC, day 56): 72%
% Macrofilarial reduction, B. pahangi (12.5 mg/kg/day × 5 days, SC, day 56): 100%
% Macrofilarial reduction, B. pahangi (25 mg/kg/day × 1 day, SC, day 56): 100%
% Macrofilarial reduction, B. pahangi (25 mg/kg/day × 5 days, SC, day 56): 100%
% Macrofilarial reduction, B. pahangi (75 mg/kg/day × 5 days, oral, day 56): 30%
% Macrofilarial reduction, B. pahangi (100 mg/kg/day × 5 days, oral, day 56): 32%
